Reference: patent US20050059726A1, “Pyrrolidine-2-ones as factor xa inhibitors” (priority 2001, published 2005)
Structures can show the parent of a compound that is named as a salt.

Molecular target: human Factor Xa (Homo sapiens, UniProt P00742)
Assay: In vitro assay for inhibition of Factor Xa (2), fluorogenic assay
Assay type: biochemical
Conditions: substrate Rhodamine 110, bis-(CBZ-glycylglycyl-L-arginine amide 10 μM), Ki calculated from IC50
Procedure: In Vitro Assay for Inhibition of Factor Xa (2)
All other compounds of the present invention were tested for their Factor Xa inhibitory activity as determined in vitro by their ability to inhibit human Factor Xa in a fluorogenic assay, using Rhodamine 110, bis-(CBZ-glycylglycyl-L-arginine amide as the fluorogenic substrate. Compounds were diluted from a 10 mM stock solution in dimethylsulfoxide at appropriate concentrations. Assay was performed at room temperature using buffer consisting of: 50 mM Tris-HCl, 150 mM NaCl, 5 mM CaCl2, pH 7.4. containing human Factor Xa (final conc. Of 0.0003U.ml−1). Compound and enzyme were preincubated for 15 min prior to addition of the substrate (final conc. of 10 μM). The reaction was stopped after 3 hrs with the addition of H-D-PHE-PRO-ARG-Chloromethylketone. […] To obtain IC50 values the data were analysed using ActivityBase® and XLfit®.
Calculation of Ki values:
Ki=IC50/(1+[Substrate]/Km)
The Ki value for the above assay can be obtained by dividing the IC50 value by 1.6.

Chain of human Factor Xa (P00742 235-488 limits assumed): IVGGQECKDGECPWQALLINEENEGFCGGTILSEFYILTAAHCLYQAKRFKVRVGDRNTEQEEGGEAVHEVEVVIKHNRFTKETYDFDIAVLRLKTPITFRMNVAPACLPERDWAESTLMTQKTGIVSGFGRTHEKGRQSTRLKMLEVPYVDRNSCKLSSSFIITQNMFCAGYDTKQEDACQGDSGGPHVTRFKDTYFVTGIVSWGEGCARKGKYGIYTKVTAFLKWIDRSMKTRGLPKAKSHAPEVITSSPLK
Chain of human Factor Xa (P00742 41-179 partner limits assumed): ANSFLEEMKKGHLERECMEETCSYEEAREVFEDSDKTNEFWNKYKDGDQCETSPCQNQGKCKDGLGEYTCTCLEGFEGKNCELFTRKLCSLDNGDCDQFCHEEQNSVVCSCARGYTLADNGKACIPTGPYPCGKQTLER

Row | Ki | SMILES
1 | < 0.2 µM | Cc1ccc(-c2ccc(N3CC[C@H](NS(=O)(=O)c4ccc5cc(Cl)ccc5c4)C3=O)c(F)c2)s1 [Example 68, 6-Chloro-N-{(3S)-1-[2-fluoro-4-(5-methylthien-2-yl)phenyl]-2-oxopyrrolidin-3-yl}naphthalene-2-sulfonamide]
2 | < 1 µM | CS(=O)(=O)c1ccccc1-c1ccc(N2CC[C@H](NS(=O)(=O)c3cccc4cnccc34)C2=O)c(F)c1 [Example 6, N-{(3S)-1-[3-Fluoro-2′-(methylsulfonyl)-1,1′-biphenyl-4-yl]-2-oxopyrrolidin-3-yl}isoquinoline-5-sulfonamide]
3 | < 0.2 µM | O=C1[C@@H](NS(=O)(=O)c2ccc3cc(Cl)ccc3c2)CCN1c1ccc(-c2ccc(Cl)s2)cc1F [Example 71, 6-Chloro-N-{(3S)-1-[4-(5-chlorothien-2-yl)-2-fluorophenyl]-2-oxopyrrolidin-3-yl}naphthalene-2-sulfonamide]
4 | < 0.2 µM | Cc1cscc1-c1ccc(N2CC[C@H](NS(=O)(=O)c3ccc4cc(Cl)ccc4c3)C2=O)c(F)c1 [Example 69, 6-Chloro-N-{(3S)-1-[2-fluoro-4-(4-methylthien-3-yl)phenyl]-2-oxopyrrolidin-3-yl}naphthalene-2-sulfonamide]
5 | < 0.02 µM | Cn1cnc(-c2ccc(N3CC[C@H](NS(=O)(=O)c4ccc5cc(Cl)ccc5c4)C3=O)c(F)c2)c1 [Example 84, 6Chloro-N-{(3S)-1-[2-fluoro-4-(1-methyl-1H-imidazol-4-yl)phenyl]-2-oxopyrrolidin-3-yl}naphthalene-2-sulfonamide Formate]
6 | < 0.02 µM | CS(=O)(=O)c1ccccc1-c1ccc(N2CC[C@H](NS(=O)(=O)c3c(Cl)sc4ccsc34)C2=O)c(F)c1 [Example 88, 2-Chloro-N-{(3S)-1-[3-fluoro-2′-(methylsulfonyl)-1,1′-biphenyl-4-yl]-2-oxopyrrolidin-3-yl}thieno[3.2-b]thiophene-3-sulfonamide]
7 | < 0.01 µM | CS(=O)(=O)c1ccccc1-c1ccc(N2CC[C@H](NS(=O)(=O)c3ccc(-c4ccc(Cl)s4)s3)C2=O)c(F)c1 [Example 8, 5′-Chloro-N-{(3S)-1-[3-fluoro-2′-(methylsulfonyl)-1,1′-biphenyl-4-yl]-2-oxopyrrolidin-3-yl}-2,2′-bithiophene-5-sulfonamide]
8 | < 0.01 µM | CS(=O)(=O)c1ccccc1-c1ccc(N2CC[C@H](NS(=O)(=O)c3cc4cc(Cl)ccc4o3)C2=O)c(F)c1 [Example 5, 5-Chloro-N-{(3S)-1-[3-fluoro-2′-(methylsulfonyl)-1,1′-biphenyl-4-yl]-2-oxopyrrolidin-3-yl}-1-benzofuran-2-sulfonamide]
9 | < 0.01 µM | O=C1[C@@H](NS(=O)(=O)c2ccc3cc(Cl)ccc3c2)CCN1c1ccc(-c2cccnc2)cc1F [Example 57, 6-Chloro-N-[(3S)-1-(2-fluoro-4-pyridin-3ylphenyl)-2-oxopyrrolidin-3-yl]naphthalene-2-sulfonamide]
10 | < 0.01 µM | NC(=O)CN([C@H]1CCN(c2ccc(-c3ccccc3S(N)(=O)=O)cc2F)C1=O)S(=O)(=O)c1cc2ccc(Cl)cc2s1 [Example 140, 2-{(6-Chloro-benzo[b]thiophene-2-sulphonyl)-[(S)-1-(3-fluoro-2′-sulfamoyl-biphenyl-4-yl)-2-oxo-pyrrolidin-3-yl]-amino}-acetamide Formate]
11 | < 0.01 µM | CS(=O)(=O)c1ccccc1-c1ccc(N2CC[C@H](N(CC(N)=O)S(=O)(=O)/C=C/c3ccc(Cl)s3)C2=O)c(F)c1 [Example 46]
12 | < 0.01 µM | O=C1[C@@H](NS(=O)(=O)c2ccc3cc(Cl)ccc3c2)CCN1c1ccc(-c2cccnc2Cl)cc1F [Example 78, 6-Chloro-N-{(3S)-1-[4-(2-chloropyridin-3-yl)-2-fluorophenyl]-2-oxopyrrolidin-3-yl}naphthalene-2-sulfonamide]
13 | < 0.02 µM | CS(=O)(=O)c1ccccc1-c1ccc(N2CC[C@H](NS(=O)(=O)c3cccc(CN)c3)C2=O)c(F)c1 [Example 53, 3-(Aminomethyl)-N-{(3S)-1-[3-fluoro-2′-(methylsulfonyl)-1,1′-biphenyl-4-yl]-2-oxopyrrolidin-3-yl}benzenesulfonamide]
14 | < 0.01 µM | COc1ccncc1-c1ccc(N2CC[C@H](NS(=O)(=O)c3ccc4cc(Cl)ccc4c3)C2=O)c(F)c1 [Example 62, 6-Chloro-N-{(3S)-1-[2-fluoro-4-(4-methoxypyridin-3-yl)phenyl]-2-oxopyrrolidin-3-yl}naphthalene-2-sulfonamide]

More lines, now with the values behind:

Row | SMILES | Ki
15 | O=C1[C@H](NS(=O)(=O)c2cc3ccc(Cl)cc3s2)CCN1c1ccc([N+](=O)[O-])cc1F [Example 94, 6-Chloro-N-[(3R)-1-(2-fluoro-4-nitrophenyl)-2-oxopyrrolidinyl]-1-benzothiophene-2-sulfonamide] | < 0.2 µM
16 | C/C(=C\S(=O)(=O)N[C@H]1CCN(c2ccc(C(=O)N(C)C)cc2F)C1=O)c1ccc(Cl)s1 [Example 110, 4-[(3S)-3({[(1E)-2-(5-Chlorothien-2-yl)prop-1-enyl]sulfonyl}amino)-2-oxopyrrolidin-1-yl]-3-fluoro-N,N-dimethylbenzamide] | < 0.01 µM
17 | N#Cc1ccccc1-c1ccc(N2CC[C@H](NS(=O)(=O)/C=C/c3ccc(Cl)s3)C2=O)nc1 [Example 26, (E)-2-(5-Chlorothien-2-yl)-N-{(3S)-1-[5-(2-cyanophenyl)pyridin-2yl]-2-oxopyrrolidin-3-yl}ethenesulfonamide] | < 0.01 µM
18 | NC(=O)c1ccc(N2CC[C@H](NS(=O)(=O)/C=C/c3ccc(Cl)s3)C2=O)nc1 [Example 106, 6-[(3S)-3-({[(E)-2-(5-Chlorothien-2-yl)ethenyl]sulfonyl}amino)-2-oxopyrrolidin-1-yl]nicotinamide] | < 0.2 µM
19 | O=C1[C@@H](NS(=O)(=O)CCc2ccc(Cl)s2)CCN1c1ccc(I)cn1 [Example 132, 2-(5-Chlorothien-2-yl)-N-[(3S)-1-(5-iodopyridin-2-yl)-2-oxopyrrolidin-3-yl]ethane-1-sulfonamide] | < 0.02 µM
20 | CN(c1ccccc1-c1ccc(N2CC[C@H](NS(=O)(=O)/C=C/c3ccc(Cl)s3)C2=O)nc1)S(C)(=O)=O [Example 30, (E)-2-(5-Chlorothien-2-yl)-N-[(3S)-1-(5-{2-[methyl(methylsulfonyl)amino]phenyl}pyridin-2-yl)-2-oxopyrrolidin-3yl]ethenesulfonamide] | < 0.01 µM
21 | CS(=O)(=O)c1ccccc1-c1ccc(N2CC[C@H](N(CC(=O)O)S(=O)(=O)/C=C/c3ccc(Cl)s3)C2=O)nc1 [Example 48, {[(E)-2-(5-Chlorothien-2-yl)(ethenyl]sulfonyl}((3S)-1-{5-[2-(methylsulfonyl)phenyl]pyridin-2-yl}-2-oxopyrrolidin-3-yl)amino]acetic Acid] | < 0.01 µM
22 | O=C1[C@@H](NS(=O)(=O)c2ccc(-c3ccc(Cl)s3)s2)CCN1c1ccc(I)cc1F [Example 92, 5′-Chloro-N-[(3S)-1-(2-fluoro-4-iodophenyl)-2-oxopyrrolidin-3-yl]-2,2′-bithiophene-5-sulfonamide] | < 0.01 µM
23 | CC(O)c1ccc(N2CC[C@H](NS(=O)(=O)/C=C/c3ccc(Cl)s3)C2=O)c(F)c1 (stereo partly drawn) [Example 135, (E)-2-(5-Chlorothien-2-yl)-N-{(3S)-1-[2-fluoro-4-(1-hydroxyethyl)phenyl]-2-oxopyrrolidin-3-yl}ethenesulfonamide] | < 0.2 µM
24 | C/C(=C\S(=O)(=O)N[C@H]1CCN(c2ccc(NS(C)(=O)=O)cc2F)C1=O)c1ccc(Cl)s1 [Example 137, (1E)-2-(5-Chlorothien-2-yl)-N-((3S)-1-{2-fluoro-4-[(methylsulfonyl)amino]phenyl}-2-oxopyrrolidin-3-yl)prop-1-ene-1-sulfonamide] | < 0.02 µM
25 | CC(=O)Nc1ccc(N2CC[C@H](NS(=O)(=O)c3cc4ccc(Cl)cc4s3)C2=O)c(F)c1 [Example 117, N-[4-((3S)-3-{[(6-Chloro-1-benzothien-2-yl)sulfonyl]amino}-2-oxopyrrolidinyl)-3-fluorophenyl]acetamide] | < 1 µM
26 | N#Cc1ccc(N2CC[C@H](NS(=O)(=O)c3cc4ccc(Cl)cc4s3)C2=O)c(F)c1 [Example 97, 6-Chloro-N-[(3S)-1-(4-cyano-2-fluorophenyl)-2-oxopyrrolidin-3-yl]-1-benzothiophene-2-sulfonamide] | < 0.01 µM
27 | O=C1[C@@H](NS(=O)(=O)c2ccc3cc(Cl)ccc3c2)CCN1c1ccc(-c2cc[n+]([O-])cc2)cc1F [Example 76, 6-Chloro-N-{(3S)-1-[2-fluoro-4-(1-oxidopyridin-4-yl)phenyl]-2-oxopyrrolidin-3-yl}naphthalene-2-sulfonamide] | < 0.02 µM
28 | CC(=O)c1ccc(N2CC[C@H](NS(=O)(=O)/C=C/c3ccc(Cl)s3)C2=O)nc1 [Example 113, (E)-N-[(3S)-1-(5-Acetylpyridin-2-yl)-2-oxopyrrolidin-3yl]-2-(5-chlorothien-2-yl)ethenesulfonamide] | < 0.2 µM
29 | CN(C)C(=O)c1ccccc1-c1ccc(N2CC[C@H](NS(=O)(=O)/C=C/c3ccc(Cl)s3)C2=O)nc1 [Example 25, 2-{6-[(3S)-3-({[(E)-2-(5-Chlorothien-2-yl)ethenyl]sulfonyl}amino)-2-oxopyrrolidin-1-yl]pyridin-3-yl}-N,N-dimethylbenzamide] | < 0.02 µM
30 | CN(C)C(=O)c1ccc(N2CC[C@H](NS(=O)(=O)c3cc4ccc(Cl)cc4s3)C2=O)c(F)c1 [Example 109, 4-((3S)-3-{[(6-Chloro-1-benzothien-2-yl)sulfonyl]amino}-2-oxopyrrolidin-1-yl)-3-fluoro-N,N-dimethylbenzamide] | < 0.01 µM
31 | CN(C)S(=O)(=O)c1ccccc1-c1ccc(N2CC[C@H](NS(=O)(=O)/C=C/c3ccc(Cl)s3)C2=O)nc1 [Example 28] | < 0.01 µM
